Data taken from PMC3920720, “Triterpenes and Steroids from Euphorbia denticulata Lam. With Anti-Herpes Symplex Virus Activity” (Iranian Journal of Pharmaceutical Research : IJPR, 2013).
In brackets after ≈: the same amount, converted by molar mass. Read-outs that look alike come from different tables or passages of the source.

Columns and labels:
HSV-1 [1] = test: Antiviral assay using MTS method (HSV-1 infected Vero cells); assay type: cell-based, Herpes simplex virus type 1 (HSV-1, strain KOS); settings: for Selectivity index (SI) = CC50/EC50: HSV-1, CC50 on Vero cells / EC50; for EC50: read-out: EC50 ±SEM (concentration producing 50% inhibition of virus induced cytopathic effects)
Vero cells = test: Cytotoxicity assay (MTS) on Vero cells; assay type: cell-based, African green monkey; settings: Vero cells, MTS, 3 days incubation, n=3
Description: (§1) For cytotoxicity and antiviral assays cells were grown in Dulbeccoʼs Modified Eagleʼs growth Medium ( DMEM; Sigma, USA) supplemented with 2% of fetal bovine serum (FBS; Gibco, Germany), 100 μg/mL of streptomycin, 100 UI/mL of penicillin and 0.25 μg/mL amphotericin B ( Gibco, Germany) and 0.14% (v/v) sodium bicarbonate. All the cells were cultured at 37°C in a humidified atmosphere supplied with 5% CO2.
(§2) The Vero cells were seeded onto a 96-well plate at a concentration of 3.5×10^5 Vero cells per mL and a volume of 100 μL per well. Following 24 h incubation at 37 °C, a confluent cell monolayer was confirmed and cell media was removed. Test compounds were serially diluted with the culture medium supplemented with 2% serum to reach the different concentrations. Negative control dilution of DMSO at 0.1 % was also included. An aliquot of 100 μL/well of each diluted compound or DMSO was added to the plates in triplicate. After incubation at 37 °C with 5% CO2 for 3 days, MTS (Cell Titer 96; Promega, USA) was added to each well with a volume of 20 μL. The trays were further incubated for 2 h to allow MTS production. The absorbances were determined with an ELISA reader (Stata Fax 2100, USA) at a test wavelength of 490 nm. Data were calculated as the percentage of inhibition using the following formula: inhibition % =[100 – ( At/ As) × 100]%. At and As refer to the absorbances of the test substances and the solvent control, respectively. CC50 values, defined as the concentration of 50% cellular cytotoxicity (CC50) of test compounds ([7], [8]).

[2] = Cytotoxicity assay (MTS) on Vero cells; assay type: cell-based, African green monkey; settings: African green monkey
Description: as §1, §2

HSV-1 [3] = test: Time-course anti-virus analysis (MTS, addition pre-, co- or post-infection); assay type: cell-based, Herpes simplex virus type 1 (HSV-1, strain KOS); settings: post-infection; 1, 10, 100 μg/mL; added 1 h before to 24 h after infection; MTS after 3 days
Description: Different non-cytotoxic concentrations (≤ CC50 values) of test compounds were added to culture cells in triplicate at different times pre-infection or post-infection. HSV-1(10 TCID50 per well) was inoculated onto confluent monolayers of Vero cells for 2 h. After 3 days, MTS test and antiviral activity were carried out as previously described ([3]).
Inhibition was evaluated by MTS assay after 3 days of infection and expressed as percentage inhibition.
Figure 3 Inhibitory effect of test compounds at different concentrations (1, 10, 100 μg/mL) at various times pre-infection , co-infection and post-infection of herpesvirus (HSV-1) to Vero cells. a) betulin, and b) (3β,23E)-Cycloarta-23-ene-3,25-diol were added with the HSV-1 infected Vero cells at various times period like pre-infection (− 1 h), co-infection (0 h) or post-infection( 2-24 h). After 3 days of incubation at 37°C, inhibition was evaluated by MTS assay and expressed as the inhibition percentage. Each point represents the mean of three independent experiments

[4] = Human alphaherpesvirus 1, Vero, 72 h
[5] = CC50 ±SEM (50% cytotoxic concentration on vero cells)

SMILES | Selectivity index (SI) = CC50/EC50 (HSV-1 [1]) | Selectivity index (SI) = CC50/EC50 (HSV-1 [1]; listed as betulin) | EC50 (HSV-1 [1]; [4]) [µg/mL] | CC50 ±SEM (50% cytotoxic concentration on vero cells) (Vero cells) [µg/mL] | CC50 at 3 days ([2]; Vero cells, MTS, 3 days incubation, n=3, read-out: CC50 ±SEM (50% cytotoxic concentration on vero cells)) [µg/mL] | Time of compound addition giving the highest inhibition against HSV-1 infection (HSV-1 [3]) [h] | EC50 (HSV-1 [1]; Human alphaherpesvirus 1, 72 h, HSV-1 in Vero cells, MTS, 3 days, three separate experiments) [µg/mL] | CC50 at 3 days [2, 5] [µg/mL]
C=C(C)[C@@H]1CC[C@]2(CO)CC[C@]3(C)[C@H](CC[C@@H]4[C@@]5(C)CC[C@H](O)C(C)(C)[C@@H]5CC[C@]43C)[C@@H]12 [Betulin, lup-20(29)-ene-3β,28-diol] | 7.83 | 7.831 | 84.37 ± 0.018 (≈ 191 µM) | 660.72 ± 0.072 (≈ 1490 µM) | 660.72 ± 0.072 (≈ 1490 µM) | ≤ 2.0 |  | 
Nc1nc2c(ncn2COCCO)c(=O)[nH]1 [Acyclovir, reference compound] | 42.66 |  |  |  |  |  | 3 (≈ 13.3 µM) | 128 ± 0.215 (≈ 568 µM)
C[C@H](C/C=C/C(C)(C)O)[C@H]1CC[C@@]2(C)C3CCC4C(C)(C)[C@@H](O)CC[C@@]45C[C@@]35CC[C@]12C (stereo partly drawn) [(3β,23E)-Cycloarta-23-ene-3,25-diol, Cycloart-23E-ene-3β,25-diol] | 12.57 |  | 86.63 ± 0.03 (≈ 196 µM) |  |  | ≤ 2.0 |  | 1089.2 ± 0.25 (≈ 2460 µM)
